Assay results: ChEMBL document CHEMBL4706702 (Bioorg Med Chem, 2021)
Calls of active or inactive are those of the source. The calls are words filed in the database; no cut-off is given here.

Legend:
Mushroom tyrosinase [1] = target: T1, Mushroom tyrosinase (Agaricus bisporus, UniProt O42713+Q00024+C7FF04+C7FF05); assay: Inhibition of mushroom tyrosinase using L-DOPA as substrate preincubated for 20 mins followed by substrate addition and measured after 10 mins
[2] = Antioxidant activity assessed as inhibition of DPPH radical activity at 100 uM incubated for 20 mins by spectrophotometric method relative to control; type: functional
[3] = target: T2, Mushroom tyrosinase (Agaricus bisporus) (UniProt O42713+Q00024+C7FF04+C7FF05); assay: Inhibition of mushroom tyrosinase using L-DOPA as substrate at 0.5 uM preincubated for 20 mins followed by substrate addition and measured after 10 mins relative to control; conditions: time 30.0 min
[4] = target: T2, Mushroom tyrosinase (Agaricus bisporus); assay: Inhibition of mushroom tyrosinase using L-DOPA as substrate at 10 uM preincubated for 20 mins followed by substrate addition and measured after 10 mins relative to control; conditions: time 30.0 min
[5] = target: T2, Mushroom tyrosinase (Agaricus bisporus); assay: Potency index, ratio of kojic acid IC50 to test compound IC50 for inhibition of mushroom tyrosinase using L-DOPA as substrate
Mushroom tyrosinase [6] = target: T1, Mushroom tyrosinase; assay: Inhibition of mushroom tyrosinase using L-DOPA as substrate preincubated for 10 mins followed by substrate addition and measured after 20 mins
[7] = system: O=c1cc(CSc2nc3ccccc3c(=O)n2Cc2ccccn2)occ1O; assay: Uncompetitive inhibition of mushroom tyrosinase assessed as Km at 10 uM using L-DOPA as substrate preincubated for 10 mins followed by substrate addition and measured after 10 mins by Lineweaver-Burk plot analysis (reference value: […] uM); conditions: Agaricus bisporus, time 20.0 min
[8] = system: O=c1cc(CSc2nc3ccccc3c(=O)n2Cc2ccccn2)occ1O; assay: Uncompetitive inhibition of mushroom tyrosinase assessed as Vmax at 10 uM using L-DOPA as substrate preincubated for 10 mins followed by substrate addition and measured after 10 mins by Lineweaver-Burk plot analysis (reference value: […] OD/min); conditions: Agaricus bisporus, time 20.0 min
[9] = system: O=c1cc(CSc2nc3ccccc3c(=O)n2Cc2ccccn2)occ1O; assay: Uncompetitive inhibition of mushroom tyrosinase assessed as Km at 0.5 uM using L-DOPA as substrate preincubated for 10 mins followed by substrate addition and measured after 10 mins by Lineweaver-Burk plot analysis (reference value: […] uM); conditions: Agaricus bisporus, time 20.0 min
[10] = system: O=c1cc(CSc2nc3ccccc3c(=O)n2Cc2ccccn2)occ1O; assay: Uncompetitive inhibition of mushroom tyrosinase assessed as Vmax at 0.5 uM using L-DOPA as substrate preincubated for 10 mins followed by substrate addition and measured after 10 mins by Lineweaver-Burk plot analysis (reference value: […] OD/min); conditions: Agaricus bisporus, time 20.0 min
[11] = system: O=c1cc(CSc2nc3ccccc3c(=O)n2Cc2ccccn2)occ1O; assay: Uncompetitive inhibition of mushroom tyrosinase assessed as Vmax at 2.5 uM using L-DOPA as substrate preincubated for 10 mins followed by substrate addition and measured after 10 mins by Lineweaver-Burk plot analysis (reference value: […] OD/min); conditions: Agaricus bisporus, time 20.0 min
[12] = system: O=c1cc(CSc2nc3ccccc3c(=O)n2Cc2ccccn2)occ1O; assay: Uncompetitive inhibition of mushroom tyrosinase assessed as Km at 2.5 uM using L-DOPA as substrate preincubated for 10 mins followed by substrate addition and measured after 10 mins by Lineweaver-Burk plot analysis (reference value: […] uM); conditions: Agaricus bisporus, time 20.0 min
[13] = target: T3, Tyrosinase (Mus musculus) (UniProt P11344); assay: Inhibition of tyrosinase in mouse B16F10 cells assessed melanin level at 8 uM after 24 hrs relative to control; type: cell-based; set-up: scale not given: the % may be the effect or the level left; conditions: B16-F10
T3 sequence (whole entry): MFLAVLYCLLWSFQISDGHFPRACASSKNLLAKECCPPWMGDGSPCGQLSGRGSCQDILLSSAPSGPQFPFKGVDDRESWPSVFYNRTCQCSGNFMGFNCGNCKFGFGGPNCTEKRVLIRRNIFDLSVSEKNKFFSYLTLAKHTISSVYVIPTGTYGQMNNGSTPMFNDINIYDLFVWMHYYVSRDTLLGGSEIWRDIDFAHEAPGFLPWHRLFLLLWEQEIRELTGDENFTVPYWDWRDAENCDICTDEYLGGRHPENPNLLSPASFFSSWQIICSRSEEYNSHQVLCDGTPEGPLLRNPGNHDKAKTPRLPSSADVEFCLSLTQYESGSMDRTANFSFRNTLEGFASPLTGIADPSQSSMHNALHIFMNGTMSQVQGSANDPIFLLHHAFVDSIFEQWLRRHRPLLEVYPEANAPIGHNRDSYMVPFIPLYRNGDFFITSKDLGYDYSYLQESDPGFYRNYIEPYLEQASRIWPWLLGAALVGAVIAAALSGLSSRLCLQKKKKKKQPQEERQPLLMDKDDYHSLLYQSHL

B16-F10 [14] = assay: Cytotoxicity against mouse B16F10 cells assessed as reduction in cell viability at 8 uM after 48 hrs by MTT assay; type: cell-based; conditions: b16-f10, 48 h
[15] = target: T3, Tyrosinase (Mus musculus); assay: Inhibition of tyrosinase in mouse B16F10 cells assessed reduction in melanin level at 2 uM after 24 hrs; type: cell-based; conditions: B16-F10
B16-F10 [16] = assay: Cytotoxicity against mouse B16F10 cells assessed as reduction in cell viability at 2 to 4 uM after 48 hrs by MTT assay; type: cell-based; conditions: b16-f10, 48 h, dose 2-4 µM

Sequence of Mushroom tyrosinase (Agaricus bisporus) (from UniProt O42713+Q00024+C7FF04+C7FF05) (C7FF05 whole entry, looked up): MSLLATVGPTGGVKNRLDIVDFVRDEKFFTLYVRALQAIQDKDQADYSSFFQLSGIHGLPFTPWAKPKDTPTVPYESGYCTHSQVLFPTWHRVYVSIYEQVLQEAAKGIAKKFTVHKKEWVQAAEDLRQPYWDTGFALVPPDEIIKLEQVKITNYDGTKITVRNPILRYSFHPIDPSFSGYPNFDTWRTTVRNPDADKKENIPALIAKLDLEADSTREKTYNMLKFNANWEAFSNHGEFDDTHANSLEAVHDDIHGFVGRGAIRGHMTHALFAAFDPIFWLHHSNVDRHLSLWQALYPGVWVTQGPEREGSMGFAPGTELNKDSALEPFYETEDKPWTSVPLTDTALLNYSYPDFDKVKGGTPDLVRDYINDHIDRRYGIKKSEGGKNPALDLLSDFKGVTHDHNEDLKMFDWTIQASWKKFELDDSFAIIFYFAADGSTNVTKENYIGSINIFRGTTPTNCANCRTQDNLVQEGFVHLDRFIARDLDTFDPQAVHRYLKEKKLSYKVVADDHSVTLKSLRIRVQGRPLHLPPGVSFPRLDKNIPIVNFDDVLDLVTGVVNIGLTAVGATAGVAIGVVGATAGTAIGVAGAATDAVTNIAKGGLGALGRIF
Sequence of Mushroom tyrosinase (Agaricus bisporus) (from UniProt O42713+Q00024+C7FF04+C7FF05) (C7FF04 whole entry, looked up): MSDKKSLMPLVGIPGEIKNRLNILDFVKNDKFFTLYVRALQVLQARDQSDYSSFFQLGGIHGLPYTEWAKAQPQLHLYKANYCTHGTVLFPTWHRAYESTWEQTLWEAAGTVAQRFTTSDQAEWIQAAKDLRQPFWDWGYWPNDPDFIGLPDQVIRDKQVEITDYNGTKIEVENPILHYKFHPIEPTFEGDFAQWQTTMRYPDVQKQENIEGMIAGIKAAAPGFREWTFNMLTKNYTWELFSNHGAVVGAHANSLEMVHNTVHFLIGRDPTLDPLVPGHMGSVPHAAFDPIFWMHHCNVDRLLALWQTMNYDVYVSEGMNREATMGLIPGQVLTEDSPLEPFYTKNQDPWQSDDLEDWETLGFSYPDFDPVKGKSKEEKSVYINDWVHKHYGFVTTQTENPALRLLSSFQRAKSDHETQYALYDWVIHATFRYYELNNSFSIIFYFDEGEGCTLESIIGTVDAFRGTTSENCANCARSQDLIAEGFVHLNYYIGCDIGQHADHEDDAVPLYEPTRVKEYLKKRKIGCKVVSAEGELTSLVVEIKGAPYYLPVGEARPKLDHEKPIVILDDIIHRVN
Sequence of Mushroom tyrosinase (Agaricus bisporus) (from UniProt O42713+Q00024+C7FF04+C7FF05) (Q00024 whole entry, looked up): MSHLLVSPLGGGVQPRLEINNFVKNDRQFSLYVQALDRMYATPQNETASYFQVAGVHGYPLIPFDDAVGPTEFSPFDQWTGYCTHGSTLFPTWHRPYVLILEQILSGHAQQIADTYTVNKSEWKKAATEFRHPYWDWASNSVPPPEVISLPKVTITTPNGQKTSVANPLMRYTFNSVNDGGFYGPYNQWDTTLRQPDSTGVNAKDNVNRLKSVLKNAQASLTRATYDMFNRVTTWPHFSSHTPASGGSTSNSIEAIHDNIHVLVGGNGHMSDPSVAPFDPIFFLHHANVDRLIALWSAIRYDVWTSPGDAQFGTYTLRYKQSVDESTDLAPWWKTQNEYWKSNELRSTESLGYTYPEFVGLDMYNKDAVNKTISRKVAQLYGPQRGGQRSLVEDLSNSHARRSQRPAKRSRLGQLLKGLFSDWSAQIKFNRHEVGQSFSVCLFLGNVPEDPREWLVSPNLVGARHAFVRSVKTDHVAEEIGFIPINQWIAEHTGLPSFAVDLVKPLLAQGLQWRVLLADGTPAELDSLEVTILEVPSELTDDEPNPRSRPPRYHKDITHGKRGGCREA
Sequence of Mushroom tyrosinase (Agaricus bisporus) (from UniProt O42713+Q00024+C7FF04+C7FF05) (O42713 whole entry, looked up): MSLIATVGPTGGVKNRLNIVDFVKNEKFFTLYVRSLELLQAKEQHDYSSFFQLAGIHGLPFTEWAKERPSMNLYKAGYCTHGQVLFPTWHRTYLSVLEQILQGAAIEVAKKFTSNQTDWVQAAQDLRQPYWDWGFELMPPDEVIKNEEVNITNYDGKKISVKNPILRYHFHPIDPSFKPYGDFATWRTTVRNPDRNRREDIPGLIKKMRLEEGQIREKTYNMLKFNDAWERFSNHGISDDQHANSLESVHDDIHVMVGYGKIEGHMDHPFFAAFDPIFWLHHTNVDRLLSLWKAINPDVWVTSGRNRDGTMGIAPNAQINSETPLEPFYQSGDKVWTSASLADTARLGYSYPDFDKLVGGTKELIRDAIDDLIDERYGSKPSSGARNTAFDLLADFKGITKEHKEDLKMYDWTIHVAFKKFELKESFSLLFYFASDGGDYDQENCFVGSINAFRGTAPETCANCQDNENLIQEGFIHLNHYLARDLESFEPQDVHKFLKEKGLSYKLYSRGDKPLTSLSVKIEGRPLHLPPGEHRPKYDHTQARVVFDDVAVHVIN

Compound	IC50 (Mushroom tyrosinase [1])	inhibition [2]	inhibition [3]	inhibition [4]	further results
O=c1cc(CSc2nc3ccccc3c(=O)n2Cc2ccncc2)occ1O	2.2 µM	39%	15.9%	88.5%	–
COc1ccc(-n2c(SCc3cc(=O)c(O)co3)nc3ccccc3c2=O)cc1OC	2.12 µM	24.5%	40.1%	98.8%	–
O=c1cc(CSc2nc3ccccc3c(=O)n2-c2ccccc2)occ1O	1.88 µM	31.4%	43%	91.7%	–
COc1ccc(-n2c(SCc3cc(=O)c(O)co3)nc3ccccc3c2=O)cc1	2.4 µM	27.1%	22.1%	83.5%	–
O=c1cc(CSc2nc3ccccc3c(=O)n2Cc2ccccc2)occ1O	1.42 µM	27.9%	42.5%	94.1%	–
CC(C)n1c(SCc2cc(=O)c(O)co2)nc2ccccc2c1=O	1.44 µM	32.6%	38.6%	91.2%	–
Cc1ccc(-n2c(SCc3cc(=O)c(O)co3)nc3ccccc3c2=O)cc1	5.32 µM	33.3%	11.4%	77.3%	–
O=c1cc(CSc2nc3ccccc3c(=O)n2C2CC2)occ1O	2.1 µM	24.5%	23.6%	82.5%	Ratio IC50 [5]: 4
O=c1cc(CSc2nc3ccccc3c(=O)n2-c2ccc(Cl)cc2)occ1O	0.5 µM	32.6%	49.5%	94.2%	–
O=C(Nn1c(-c2ccccc2O)nc2ccccc2c1=O)c1ccco1	–	–	–	–	IC50 (Mushroom tyrosinase [6]): 0.499 µM
Mushroom tyrosinase (Agaricus bisporus) (from UniProt O42713+Q00024+C7FF04+C7FF05)	–	–	–	–	Km [7]: 0.92 µM; Vmax (optical density/minute) [8]: 0.081; Km [9]: 1.68 µM; Vmax (optical density/minute) [10]: 0.27; Vmax (optical density/minute) [11]: 0.15; Km [12]: 1.15 µM
O=c1cc(CSc2nc3ccccc3c(=O)n2Cc2ccccn2)occ1O	0.46 µM	42.6%	54.5%	90.3%	Activity [13]: 75%; Activity (B16-F10 [14]): Toxic; inhibition [15]: Active; Activity (B16-F10 [16]): Non-Toxic
O=c1cc(CSc2nc3ccccc3c(=O)n2Cc2ccc(F)cc2)occ1O	1.56 µM	32.6%	32.4%	92%	–
C=CCn1c(SCc2cc(=O)c(O)co2)nc2ccccc2c1=O	1.56 µM	–	32.4%	92%	–
O=c1c(O)c(-c2ccc(O)c(O)c2)oc2cc(O)cc(O)c12	–	4.62%	–	–	–
O=c1cc(CSc2nc3ccccc3c(=O)n2-c2ccccn2)occ1O	0.5 µM	33.8%	50.5%	90.9%	Activity [13]: 69%; Activity (B16-F10 [14]): Toxic; inhibition [15]: Active; Activity (B16-F10 [16]): Non-Toxic
CCCn1c(SCc2cc(=O)c(O)co2)nc2ccccc2c1=O	2.31 µM	22.6%	24.5%	90.5%	–
O=c1cc(CSc2nc3ccccc3c(=O)n2-c2ccc(Br)cc2)occ1O	1.48 µM	33.3%	40.1%	71.7%	–
COc1cccc(C(=O)NN2C(=O)c3ccccc3NC2c2ccc(F)cc2)c1 (configuration not stated)	–	–	–	–	IC50 (Mushroom tyrosinase [6]): 0.006 µM
